For the compound `CN(Cc1ccc(NC(=O)C2=Cc3cc(-c4ccc5c(c4)CCCO5)ccc3S(=O)(=O)CC2)cc1)C1CCOCC1`, the melting point – broadly, the temperature of the solid-liquid transition – fell in the range of 245 to 249 °C. In the case of `CCc1nn(-c2c(Cl)cc(C(F)(F)F)cc2Cl)c(CC)c1Cc1c(OC)ccc2ccccc12` it was 96 to 98 °C; in that of `O=c1c(OCc2nnn[nH]2)coc2ccccc12`, 194 to 196 °C; in that of `CN(C(=O)On1nc(Br)c(Br)c1Br)c1ccccc1`, 115 to 119 °C. For `O=C1CCC(N2Cc3c(OCc4ccc(CN5CCN(S(=O)(=O)C(F)(F)F)CC5)cc4)cccc3C2=O)C(=O)N1` (centres undefined), the melting point was 135 to 137 °C. The same measure for `CC1NC(=O)NN=C1c1ccccn1` (centres undefined): 212 to 214 °C; for `CN1CC(O)c2cc(S(N)(=O)=O)sc2S1(=O)=O` (single isomer, unassigned; (+)): 168 °C. Take `Cc1c(=O)o[n-][n+]1CCSC1CCCCC1`: the melting point fell in the range of 82 to 83 °C. The same measure for `Cc1cc(-c2nc3cccnn3c2-c2ccnc(NC(=O)c3ccc4ncccc4c3)c2)ccc1F`: 210 to 211 °C; for `CCC(C(=O)c1ccc(Cl)cc1)n1ncn(-c2ccc(N3CCN(c4cnccn4)CC3)nc2)c1=O` (single isomer, unassigned; (+)): 190 °C. In the case of `CC(C)c1cc(OCCOCc2ccccc2)cc2c1C(=O)N(CSc1ccccc1)S2(=O)=O` it was 98 to 99 °C.

`CC(=O)Nc1ccc(C(F)(F)F)cc1-c1ccc(OC(C)C(O)CCc2cccnc2)cc1` (centres undefined) came in with a melting point of 44 to 47 °C. Compound `O=Cc1ccccc1Oc1ccc(Cl)cc1[N+](=O)[O-]` displayed a melting point of 100 to 101 °C. The same measure for `Cc1nc(=O)[nH]c2cc(Cl)c(NC(N)=O)cc12`: over 310 °C. `CC(=O)NCC1CC(c2ccc(-n3cccc3)c(F)c2)=NO1` (single isomer, unassigned; (-)) gave a melting point of 176 to 177 °C. The same measure for `CCCCOc1c(CO)n(CC(C)C)c(=O)c2ccc(OCc3ccccc3)cc12`: 90 to 91 °C. For the compound `CN(C)c1nnc(-c2nnc(SCCC(F)=C(F)F)o2)o1`, the melting point lay in the range of 87 to 90 °C. The same measure for `CCOC(=O)c1cnc2c3ccccc3c(CC)cn2c1=O`: 161 to 163 °C; for `O=C(O)c1ccc(-n2cc(C3c4ccccc4C=Cc4ccccc43)c(=S)[nH]c2=O)cc1`: 320 °C; for `CCC1=C(c2cccc(C(F)(F)F)c2)n2ncc(C#N)c2N(C(=O)CCl)C1`: 150 to 152 °C. The same measure for `Cc1c(NC(=O)CC(C)(C)C)cc2c(c1C)OC(C)(C)C2Cc1ccccc1` (centres undefined): 186 to 187 °C; for `COc1ccc(C(F)(F)F)cc1-c1ccc(S(=O)(=O)N2c3ccccc3CC2C(=O)NCCOc2ccc(CC(=O)O)cc2)cc1` (centres undefined): 85 to 88 °C; for `C=CC(=O)NCC(=O)O`: 124 to 126 °C.

Turning to `Cc1nc2c(O[C@@H]3c4ccccc4C[C@H]3O)cccn2c1N=O` (relative stereo), the melting point is 178 to 179 °C. `OC(c1ccc(F)cc1)(c1ccc(F)cc1)c1ncc[nH]1` had a melting point of 198 to 200 °C. In the case of `N=C(Nc1ccc(CNC=Nc2cccs2)cc1)c1cccs1` it was 200 to 201 °C. In turn, `Cc1oc(-c2ccc(-c3ccccc3)cc2)nc1CCOc1ccc(OC(C)(C)C(=O)O)cc1` displayed a melting point of 123 to 124 °C. Turning to `O=C(/C=C/c1ccc(F)cc1)N1CCN2C(=O)OC(c3ccccc3)(c3ccccc3)C2C1` (centres undefined), the melting point is 250 to 251 °C. In the case of `O=C1CCC(N2C(=O)c3ccc(CNC(=O)Nc4ccccc4)cc3C2=O)C(=O)N1` (centres undefined) it was 288 to 290 °C; in that of `O=C(O)c1ccc(-c2ccc(OCCCCCCO)cc2)cc1`, 235 °C; in that of `N#CCc1cccc(Cn2ccc(OCc3ccc(F)cc3F)c(Br)c2=O)c1`, 120 to 121 °C. The same measure for `COC[C@H](Cc1ccccc1)NC(=O)[C@@H](CC(=O)OCc1ccccc1)NC(=O)OC(C)(C)C`: 60 to 63 °C; for `Cc1cccc(Cl)c1C=NS`: 143 °C. Regarding `CC(=O)N1CCC(NC(=O)NC23CC4CC(CC(C4)C2)C3)CC1`, the melting point was 202 to 204 °C. In the case of `C=C1Cc2cc3c(cc2C(c2ccc(N(C(C)=O)C(C)=O)cc2)=NN1C(C)=O)OCO3` it was 240 to 245 °C; in that of `COc1ccc2c(c1)c(CC(=O)OCc1ccc(Cl)cc1)c(C)n2C(=O)c1ccc(Cl)cc1`, 113 to 114 °C. In the case of `C#CCn1c(CC)nc2c(N)nc3ccccc3c21` it was 182 to 184 °C; in that of `CCOC(=O)N[C@@H]1CCc2c(ccc(OCc3ccccc3)c2N(C)Cc2ccccc2)[C@H]1O` (relative stereo), 119 to 120 °C. In the case of `Cc1cc2c(c(C)n1)c(=O)oc1ccccc12`, the melting point was in the range of 194 to 197 °C. Consider `CN(C(=S)Oc1ccc(Cl)c(C(C)(C)C)c1)c1ccccc1`, for which the melting point is 65 to 67 °C. The same measure for `CCCc1cccc(CNC(=O)c2nc3scc(COCc4ccc(C(=O)O)cc4)c3c(=O)[nH]2)c1`: 235 to 237 °C; for `CCOC(=O)C1=C(C)NC(C)=C(C(=O)OC(C)C)C1c1csc2ccncc12` (centres undefined): 212 to 215 °C. The same measure for `COc1ccc(S(=O)(=O)N2c3ccccc3-c3ccccc3C2c2ccccc2)cc1` (centres undefined): 145 to 147 °C; for `COc1ccc2cc(C(C)=O)cc(F)c2c1`: 96 to 97 °C; for `O=C(OC1CCC1)N1CCC(c2nc3cc(-c4ccc(-n5cnnn5)cc4F)ccc3o2)CC1`: 165 to 169 °C. `OCc1cn(-c2ccccc2)nc1OCc1ccccc1` had a melting point of 93 to 94 °C. `CCOC(=O)c1cccc(NC(=O)c2cc(-c3ccc(F)cc3)oc2C)c1` gave a melting point of 171 to 172 °C. With `CN(C)CCNc1ccc(-c2n[nH]c3ncccc23)cc1`, the melting point fell in the range of 165 to 167 °C. In the case of `COC(=O)c1nc(Cl)nc(NCc2ccco2)c1Cl`, the melting point lay in the range of 110 to 112 °C. In the case of `CCOC(=O)C=CN1C(C)(C)CC(OC(=O)CC(=O)OC2CC(C)(C)N(C=CC(=O)OCC)C(C)(C)C2)CC1(C)C` it was 100 to 102 °C; in that of `CCOC(=O)C=C(C(=O)OCC)c1ccc(C(Br)Br)cc1`, 89 to 92.5 °C; in that of `COc1ccc(CSCC2NC(=O)C2NC(=O)OC(C)(C)C)cc1` (centres undefined), 120 to 123 °C. The same measure for `COC(=O)c1sc(-c2ccccc2)cc1NC(C)=O`: 115 °C. In the case of `CN(C)C(=O)N(C(=O)Nc1ccccc1)c1ccccc1` it was 105 to 107 °C; in that of `O=C(c1ccccc1)N1CCc2cc(S(=O)(=O)N3CCN(c4cccc(Cl)c4)CC3)ccc21`, 200 to 201 °C; in that of `Cc1c(-c2ccc(O)cc2)n(Cc2ccc(OCCN3CCC(O)CC3)cc2)c2ccc(O)cc12`, 80 to 90 °C.

In the case of `Nc1nc(-c2cc(Cl)ccc2Cl)nc(N2CCNCC2)n1`, the melting point fell in the range of 163 to 165 °C. The same measure for `O=C(NC1CN2CCC1CC2)c1cccc2oc(-c3ccccc3)nc12` (centres undefined): 77 to 80 °C; for `Cn1ncnc1COc1nc2c(cc1-c1ccsc1)nnn2-c1ccccc1F`: 133 to 135 °C.

Values taken from a melting point compilation (Tetko et al.; mined from patent text by program, amines drawn as free bases though some values may be those of a salt).
